Like-named read-outs stand apart in the source and are kept apart here. Where no end group is shown, it is not given here.
Assays:
HLA Class I molecules = assay: HLA class I binding stability assay (pMHC-I complex dissociation, 125I-labeled β2m, scintillation counts); design: species or system human; conditions: allele A02.01; 37° C.
Protocol: These reactions are carried out in streptavidin coated microplates to bind th biotinylated MHC-I heavy chains to the surface and allow measurement of radiolabeled light chain to monitor complex formation. Dissociation is initiated by addition of higher concentations of unlabled light-chain and incubation at 37° C. Stability is defined as the length of time in hours it takes for half of the complexes to dissociate, as measured by scintillation counts

HLA class I molecule = assay: HLA class I peptide binding affinity assay (inhibition of 125I-radiolabeled probe peptide binding to purified HLA); design: species or system human; conditions: read-out: Observed Affinity (IC50, (nM))
Protocol: Epstein-Barr virus (EBV)-transformed homozygous cell lines, fibroblasts, CIR, or 721.22 transfectants are used as sources of HLA class I molecules. […] HLA molecules are purified from lysates by affinity chromatography. The lysates are passed over a column of Sepharose CL-4B beads coupled to an appropriate antibody. […] A 1/25 volume of 2.0 M Tris, pH 6.8, is added to the eluate to reduce the pH to […]. Eluates are then concentrated by centrifugation in Centriprep 30 concentrators (Amicon, Beverly, MA). Protein content is evaluated by a BCA protein assay (Pierce Chemical Co., Rockford, IL) and confirmed by SDS-PAGE.
Following incubation, MHC-peptide complexes are separated from free peptide by gel filtration on 7.8 mm×15 cm TSK200 columns (TosoHaas 16215, Montgomeryville, PA). Because the large size of the radiolabeled peptide used for the DRB1*1501 (DR2w2(31) assay makes separation of bound from unbound peaks more difficult under these conditions, all DRB1*1501 (DR2w2(31) assays were performed using a 7.8 mm×30 cm TSK2000 column eluted at 0.6 mLs/min. The eluate from the TSK columns is passed through a Beckman 170 radioisotope detector, and radioactivity is plotted and integrated using a Hewlett-Packard 3396A integrator, and the fraction of peptide bound is determined.
Radiolabeled peptides are iodinated using the chloramine-T method. […] All subsequent inhibition and direct binding assays are performed using these HLA concentrations.
Since under these conditions [label]<[HLA] and IC50≥[HLA], the measured IC50 values are reasonable approximations of the true KD values. […] For database purposes, and inter-experiment comparisons, relative binding values are compiled. These values can subsequently be converted back into IC50 nM values by dividing the IC50 nM of the positive controls for inhibition by the relative binding of the peptide of interest.
HLA binding assays were used to evaluate either the affinity of interaction of a given epitope with a selected HLA molecule or the stability.
The measurements are plotted against the predicted affinity in FIG. 1.

Molecule	IC50 (HLA class I molecule; allele A02.01)	other results
CC[C@H](C)[C@H](NC(=O)[C@@H]1CCCN1C(=O)[C@H](CCCNC(=N)N)NC(=O)[C@H](Cc1c[nH]c2ccccc12)NC(=O)[C@H](CC(N)=O)NC(=O)[C@H](CCSC)NC(=O)CNC(=O)CNC(=O)[C@H](CCSC)NC(=O)[C@@H](N)CS)C(=O)O	–	Stability (T1/2 (h)) (HLA Class I molecules): 0.4 h
CC[C@H](C)[C@H](NC(=O)[C@@H](NC(=O)[C@H](CC(C)C)NC(=O)[C@@H](NC(=O)[C@@H]1CCCN1C(=O)[C@H](CCCNC(=N)N)NC(=O)[C@H](CCC(N)=O)NC(=O)[C@H](CC(N)=O)NC(=O)[C@H](CCSC)NC(=O)CN)[C@@H](C)CC)[C@@H](C)O)C(=O)O	–	Stability (T1/2 (h)) (HLA Class I molecules): 0.4 h
CC[C@H](C)[C@H](NC(=O)[C@@H](NC(=O)[C@H](CC(C)C)NC(=O)[C@@H](NC(=O)[C@@H]1CCCN1C(=O)[C@H](CCCNC(=N)N)NC(=O)[C@H](Cc1c[nH]c2ccccc12)NC(=O)[C@H](CC(N)=O)NC(=O)[C@H](CCSC)NC(=O)CN)[C@@H](C)CC)[C@@H](C)O)C(=O)O	–	Stability (T1/2 (h)) (HLA Class I molecules): 0.5 h
CSCC[C@H](N)C(=O)N[C@@H](C)C(=O)N[C@@H](CC(C)C)C(=O)N[C@@H](CC(N)=O)C(=O)N[C@@H](CO)C(=O)N[C@@H](CCC(=O)O)C(=O)N[C@@H](C)C(=O)N[C@@H](CC(C)C)C(=O)N[C@@H](CO)C(=O)N[C@H](C(=O)O)C(C)C	–	Stability (T1/2 (h)) (HLA Class I molecules): 0.7 h
CC(C)C[C@H](NC(=O)[C@@H](N)CCCNC(=N)N)C(=O)N[C@@H](CO)C(=O)N[C@@H](CO)C(=O)N[C@@H](CS)C(=O)N[C@H](C(=O)N1CCC[C@H]1C(=O)N[C@H](C(=O)N[C@@H](C)C(=O)O)C(C)C)C(C)C	–	Stability (T1/2 (h)) (HLA Class I molecules): 18.7 h
CC[C@H](C)[C@H](NC(=O)[C@@H](NC(=O)[C@H](CC(C)C)NC(=O)[C@@H](NC(=O)[C@@H]1CCCN1C(=O)[C@H](CCCNC(=N)N)NC(=O)[C@H](CCCNC(=N)N)NC(=O)[C@H](CC(N)=O)NC(=O)[C@H](CCSC)NC(=O)[C@@H](N)CO)[C@@H](C)CC)[C@@H](C)O)C(=O)O	–	Stability (T1/2 (h)) (HLA Class I molecules): 0.3 h
LLPEDTPPL	2.8 nM	–
LLQVTQTSFA	677 nM	–
LLSTPPLSPS	1770 nM	–
LLYITAFFLL	323 nM	–
LQEFDVQEAL [LQEFDVQEAL]	50300 nM	–
LQVTQTSFAL [LQVTQTSFAL]	718 nM	–
LSFLSSWDY	–	IC50 (HLA class I molecule; allele A01.01): 52.9 nM
LTSTVQLIM	–	IC50 (HLA class I molecule; allele A01.01): 2890 nM
LVRLSSCVPV	1240 nM	–
LVVVGADGV	1190 nM	–
MLTGPPARV	10.6 nM	–
MSDTTYKIY	–	IC50 (HLA class I molecule; allele A01.01): 10.2 nM
MSVCFFFFSV	1710 nM	–
NSFEVHVCA	503 nM	–

Molecule	IC50 (HLA class I molecule; allele A02.01)	other results
NVVPLCDLL	3030 nM	–
NVVPLCDLLL	1370 nM	–
NVVPLNDLL	2900 nM	–
NVVPLNDLLL	4190 nM	–
NVVPLSDLL	916 nM	–
NVVPLSDLLL	741 nM	–
NVVPLYGLL	10500 nM	–
PLNDLLLEML	12000 nM	–
PLSDLLLEML	6470 nM	–
PLYGLLLEML	797 nM	–
QLIMQLMPFG	5930 nM	–
QQQSDLQPPA	646 nM	–
QQSDLQPPA	70 nM	–
QTGVMICAYL	9760 nM	–
RLSSCVPVAL [RLSSCVPVAL]	54.2 nM	–
RLWHLLLQV	1.3 nM	–
RLWHLLLQVT	50.9 nM	–
SAMTTSSSQK	–	IC50 (HLA class I molecule; Allele A11.01): 15.8 nM
SLKKVPALK	–	IC50 (HLA class I molecule; Allele A11.01): 129 nM
SLVRLSSCV	29.9 nM	–

Molecule	IC50 (HLA class I molecule; allele A02.01)	other results
SLYIVGFYG	1060 nM	–
STVQLIMQL	8540 nM	–
TGSNEVTTRY	–	IC50 (HLA class I molecule; allele A01.01): 15500 nM
TIGGPTLVII	10700 nM	–
TLQRSSLWCL	118 nM	–
TQISSATEYL	2640 nM	–
TTNAFSGEY	–	IC50 (HLA class I molecule; allele A01.01): 4.4 nM
VMSDTTYKI	19.6 nM	–
VMSDTTYKIY	–	IC50 (HLA class I molecule; allele A01.01): 376 nM
VQWRSLGSL	4730 nM	–
VRLSSCVPVA	1210 nM	–
VVPLCDLLL	1200 nM	–
VVPLSDLLL	2550 nM	–
YIIIEFMTYG	186 nM	–
YITAFFLLDI	64.5 nM	–
YLGNHMNIAN	1340 nM	–
YLTKWPKFFL	42.9 nM	–
YMANGSLLN	4440 nM	–
YMANGSLLNY	–	IC50 (HLA class I molecule; allele A01.01): 13.2 nM
YTTNAFSGEY	–	IC50 (HLA class I molecule; allele A01.01): 10.5 nM

Source: patent US20230414735A1, “NEOANTIGENS AND METHODS OF THEIR USE” (priority 2016, published 2023)
